Laboratory results published in patent US12459922B2 (Gilead Sciences, Inc., priority 2022, dated 2025).

tested on: endogenous cellular STAT1 (phosphorylated at Tyr701) in NCI-H1373 cells; assay: Phospho-STAT1 (Tyr701) LANCE Ultra TR-FRET Detection Assay; assay type: cell-based; conditions: 48 hours, phospho-STAT1 (Tyr701) induction, read-out: NH1373 pSTAT1 EC50

For `Cc1cnc(-c2cc3ccn(C[C@@H]4CCC[C@H](Nc5cn[nH]c(=O)c5C(F)(F)F)C4)c(=O)c3cc2F)nc1` [Example 240], the EC50 was 4.35 nM.

same assay, conditions: Homo sapiens, NCI-H1373, 48 h, phospho-STAT1 (Tyr701) induction, read-out: NH1373 pSTAT1 EC50

In order of rising EC50:
1. CC[C@@H](CCCn1ccc2cc(-c3ncc(Cl)c(N)n3)c(F)c(F)c2c1=O)Nc1cn[nH]c(=O)c1C(F)(F)F [Example 359, (S)-6-(4-amino-5-chloropyrimidin-2-yl)-7,8-difluoro-2-(4-((6-oxo-5-(trifluoromethyl)-1,6-dihydropyridazin-4-yl)amino)hexyl)isoquinolin-1(2H)-one]  1.15 nM
2. C[C@@H](CCCn1ccc2cc(-c3ncc(Cl)c(N)n3)c(F)cc2c1=O)Nc1cn[nH]c(=O)c1C(F)(F)F [Example 202, (S)-6-(4-amino-5-chloropyrimidin-2-yl)-7-fluoro-2-(4-((6-oxo-5-(trifluoromethyl)-1,6-dihydropyridazin-4-yl)amino)pentyl)isoquinolin-1(2H)-one]  1.84 nM
3. O=c1[nH]ncc(N[C@H]2CCC[C@@H](Cn3cc(F)c4cc(-c5ncc(C(F)F)cn5)c(F)cc4c3=O)C2)c1C(F)(F)F [Example 482, 6-(5-(difluoromethyl)pyrimidin-2-yl)-4,7-difluoro-2-(((1R,3S)-3-((6-oxo-5-(trifluoromethyl)-1,6-dihydropyridazin-4-yl)amino)cyclohexyl)methyl)isoquinolin-1(2H)-one]  1.94 nM
4. O=c1[nH]ncc(N[C@H](CCCn2cnc3cc(-c4ncc(C(F)F)cn4)c(F)cc3c2=O)COC(F)F)c1C(F)(F)F [Example 384, (R)-3-(5-(difluoromethoxy)-4-((6-oxo-5-(trifluoromethyl)-1,6-dihydropyridazin-4-yl)amino)pentyl)-7-(5-(difluoromethyl)pyrimidin-2-yl)-6-fluoroquinazolin-4(3H)-one]  2.41 nM
5. [2H]C([2H])([2H])OC[C@@H](CCCn1ccc2cc(-c3ncc(C(F)(F)F)c(N)n3)c(F)cc2c1=O)Nc1cn[nH]c(=O)c1C(F)(F)F [Example 427, 6-[4-amino-5-(trifluoromethyl)pyrimidin-2-yl]-7-fluoro-2-[(4R)-4-[[6-oxo-5-(trifluoromethyl)-1H-pyridazin-4-yl]amino]-5-(trideuteriomethoxy)pentyl]isoquinolin-1-one]  2.87 nM
6. O=c1[nH]ncc(N[C@H]2CCC[C@@H](Cn3ccc4cc(-c5ncc(Cl)cn5)c(F)cc4c3=O)C2)c1C(F)(F)F [Example 248, 6-(5-chloropyrimidin-2-yl)-7-fluoro-2-(((1R,3S)-3-((6-oxo-5-(trifluoromethyl)-1,6-dihydropyridazin-4-yl)amino)cyclohexyl)methyl)isoquinolin-1(2H)-one]  3.44 nM
7. O=c1[nH]ncc(N[C@H]2CCC[C@@H](Cn3cnc4cc(-c5ncc(C(F)(F)F)cn5)c(F)cc4c3=O)C2)c1C(F)(F)F [Example 235]  4.38 nM
8. Nc1nc(-c2cc3ccn(CCC[C@H](COC(F)F)Nc4cn[nH]c(=O)c4C(F)(F)F)c(=O)c3c(F)c2F)cnc1C(F)(F)F [Example 418, (R)-6-(6-amino-5-(trifluoromethyl)pyrazin-2-yl)-2-(5-(difluoromethoxy)-4-((6-oxo-5-(trifluoromethyl)-1,6-dihydropyridazin-4-yl)amino)pentyl)-7,8-difluoroisoquinolin-1(2H)-one]  4.58 nM
9. N#Cc1ccc(-c2cc3ccn(CCC[C@H](COC(F)F)Nc4cn[nH]c(=O)c4C(F)(F)F)c(=O)c3cc2F)nc1N [Example 411, (R)-2-amino-6-(2-(5-(difluoromethoxy)-4-((6-oxo-5-(trifluoromethyl)-1,6-dihydropyridazin-4-yl)amino)pentyl)-7-fluoro-1-oxo-1,2-dihydroisoquinolin-6-yl)nicotinonitrile]  5.28 nM
10. C[C@@H](CCCn1ccc2cc(-c3cnc(Cl)c(N)n3)c(F)cc2c1=O)Nc1cn[nH]c(=O)c1C(F)(F)F [Example 351, (S)-6-(6-amino-5-chloropyrazin-2-yl)-7-fluoro-2-(4-((6-oxo-5-(trifluoromethyl)-1,6-dihydropyridazin-4-yl)amino)pentyl)isoquinolin-1(2H)-one]  8.39 nM
11. Nc1nc(-c2cc3ccn(CCC[C@H](COC(F)F)Nc4cn[nH]c(=O)c4C(F)(F)F)c(=O)c3c(F)c2F)ncc1C(F)F [Example 387, (R)-6-(4-amino-5-(difluoromethyl)pyrimidin-2-yl)-2-(5-(difluoromethoxy)-4-((6-oxo-5-(trifluoromethyl)-1,6-dihydropyridazin-4-yl)amino)pentyl)-7,8-difluoroisoquinolin-1(2H)-one]  10.4 nM
12. C[C@@H]1[C@H](O)CN1c1nc(-c2cc3ncn(CCC[C@H](C)Nc4cn[nH]c(=O)c4C(F)(F)F)c(=O)c3cc2F)ncc1C(F)(F)F [Example 288, 6-fluoro-7-(4-((2R,3R)-3-hydroxy-2-methylazetidin-1-yl)-5-(trifluoromethyl)pyrimidin-2-yl)-3-((S)-4-((6-oxo-5-(trifluoromethyl)-1,6-dihydropyridazin-4-yl)amino)pentyl)quinazolin-4(3H)-one]  10.5 nM
13. C[C@@H](CCCn1cnc2cc(-c3ncc(C(F)(F)F)c(N4CC(O)C4)n3)c(F)cc2c1=O)Nc1cn[nH]c(=O)c1C(F)(F)F [Example 124, (S)-6-fluoro-7-(4-(3-hydroxyazetidin-1-yl)-5-(trifluoromethyl)pyrimidin-2-yl)-3-(4-((6-oxo-5-(trifluoromethyl)-1,6-dihydropyridazin-4-yl)amino)pentyl)quinazolin-4(3H)-one]  11.4 nM
14. [2H]C([2H])([2H])OC[C@@H](CCCn1cnc2cc(-c3ncc(C(F)(F)F)c(N)n3)c(F)cc2c1=O)Nc1cn[nH]c(=O)c1C(F)(F)F [Example 432]  12.7 nM
15. O=c1[nH]ncc(N[C@H]2CCC[C@@H](Cn3ccc4cc(-c5ccc(C(F)(F)CO)cn5)c(F)cc4c3=O)C2)c1C(F)(F)F [Example 279, 6-(5-(1,1-difluoro-2-hydroxyethyl)pyridin-2-yl)-7-fluoro-2-(((1R,3S)-3-((6-oxo-5-(trifluoromethyl)-1,6-dihydropyridazin-4-yl)amino)cyclohexyl)methyl)isoquinolin-1(2H)-one]  15.5 nM
16. C[C@@H](CCCn1ccc2cc(-c3ncc(C(F)(F)F)c(N4CCC4)n3)c(F)cc2c1=O)Nc1cn[nH]c(=O)c1C(F)(F)F [Example 187, (S)-6-(4-(azetidin-1-yl)-5-(trifluoromethyl)pyrimidin-2-yl)-7-fluoro-2-(4-((6-oxo-5-(trifluoromethyl)-1,6-dihydropyridazin-4-yl)amino)pentyl)isoquinolin-1(2H)-one]  20.7 nM
17. Nc1nc(-c2cc3ccn(CCC[C@@H]4CC5(CC5)CN4c4cn[nH]c(=O)c4C(F)(F)F)c(=O)c3cc2F)ncc1C(F)F [Example 143, 6-[4-amino-5-(difluoromethyl)pyrimidin-2-yl]-7-fluoro-2-[3-[(6R)-5-[6-oxo-5-(trifluoromethyl)-1H-pyridazin-4-yl]-5-azaspiro[2.4]heptan-6-yl]propyl]isoquinolin-1-one]  26.5 nM
18. Nc1nc(-c2cc3ncn(CCC[C@H](COC(F)F)Nc4cn[nH]c(=O)c4C(F)(F)F)c(=O)c3cc2F)ccc1C(F)F [Example 395, (R)-7-(6-amino-5-(difluoromethyl)pyridin-2-yl)-3-(5-(difluoromethoxy)-4-((6-oxo-5-(trifluoromethyl)-1,6-dihydropyridazin-4-yl)amino)pentyl)-6-fluoroquinazolin-4(3H)-one]  30.4 nM
19. O=c1[nH]ncc(N[C@H]2CC[C@@H]2CCn2cnc3cc(-c4ncc(C(F)(F)F)cn4)c(F)cc3c2=O)c1C(F)(F)F [Example 452, 6-fluoro-3-[2-[(1R,2S)-2-[[6-oxo-5-(trifluoromethyl)-1H-pyridazin-4-yl]amino]cyclobutyl]ethyl]-7-[5-(trifluoromethyl)pyrimidin-2-yl]quinazolin-4-one]  35.9 nM
20. C[C@@H](CCCn1cnc2cc(-c3cc4c(cn3)C(F)(F)CC4)c(F)cc2c1=O)Nc1cn[nH]c(=O)c1C(F)(F)F [Example 204]  45.1 nM
21. C[C@@H](CCCn1cnc2cc(-c3ncc(OC(F)F)c(N)n3)c(F)cc2c1=O)Nc1cn[nH]c(=O)c1C(F)(F)F [Example 367, (S)-7-(4-amino-5-(difluoromethoxy)pyrimidin-2-yl)-6-fluoro-3-(4-((6-oxo-5-(trifluoromethyl)-1,6-dihydropyridazin-4-yl)amino)pentyl)quinazolin-4(3H)-one]  51.1 nM
22. C[C@@H](CCCn1cnc2cc(-c3ncc(C#N)c(N)n3)c(F)cc2c1=O)Nc1cn[nH]c(=O)c1C(F)(F)F [Example 125, (S)-4-amino-2-(6-fluoro-4-oxo-3-(4-((6-oxo-5-(trifluoromethyl)-1,6-dihydropyridazin-4-yl)amino)pentyl)-3,4-dihydroquinazolin-7-yl)pyrimidine-5-carbonitrile]  84.8 nM
23. NC1(c2cnc(-c3cc4ccn(C[C@@H]5CCC[C@H](Nc6cn[nH]c(=O)c6C(F)(F)F)C5)c(=O)c4cc3F)cn2)COC1 [Example 275, 6-(5-(3-aminooxetan-3-yl)pyrazin-2-yl)-7-fluoro-2-(((1R,3S)-3-((6-oxo-5-(trifluoromethyl)-1,6-dihydropyridazin-4-yl)amino)cyclohexyl)methyl)isoquinolin-1(2H)-one]  200 nM
24. C[C@@H](CCCn1ccc2cc(-c3nccc(N)n3)c(F)cc2c1=O)Nc1cn[nH]c(=O)c1C(F)(F)F [Example 198, (S)-6-(4-aminopyrimidin-2-yl)-7-fluoro-2-(4-((6-oxo-5-(trifluoromethyl)-1,6-dihydropyridazin-4-yl)amino)pentyl)isoquinolin-1(2H)-one]  276 nM
25. C[C@@H](CCCn1ccc2cc(-c3ccc4ncsc4n3)c(F)cc2c1=O)Nc1cn[nH]c(=O)c1C(F)(F)F [Example 333, (S)-7-fluoro-2-(4-((6-oxo-5-(trifluoromethyl)-1,6-dihydropyridazin-4-yl)amino)pentyl)-6-(thiazolo[5,4-b]pyridin-5-yl)isoquinolin-1(2H)-one]  503 nM
26. O=c1[nH]ncc(N[C@H]2CCC[C@@H](Cn3ccc4nc(-c5ccc(C(F)(F)F)cn5)ccc4c3=O)C2)c1C(F)(F)F [Example 273, 6-(((1R,3S)-3-((6-oxo-5-(trifluoromethyl)-1,6-dihydropyridazin-4-yl)amino)cyclohexyl)methyl)-2-(5-(trifluoromethyl)pyridin-2-yl)-1,6-naphthyridin-5(6H)-one]  10000 nM
